In patent publication US11912667B2, “Morphic forms of hexadecyloxypropyl-phosphonate esters and methods of synthesis thereof” (EMERGENT BIODEFENSE OPERATIONS LANSING LLC, priority 2013, dated 2024):
Where “and” joins values, the source holds several entries; their conditions need not be identical. Equal entries are not always repeated.

Columns and labels:
Type in all cases: physicochemical
[1] = Particle size analysis (PSA), Malvern Mastersizer 2000
From the text: Particle size data was acquired using a Malvern Instruments Mastersizer 2000 equipped with a Hydro2000 μP dispersion unit. Data was collected and analyzed using Mastersizer 2000 software (v. 5.60) using volume based measurements. NIST-traceable glass beads were used to qualify the instrument.

[2] = Stable form screening slurries and interconversion studies; details: for Form recovered from slurries: seeded with Form I, about two weeks
Description: In order to aid in the design of solid form screening experiments, solubility estimates were completed in various solvent systems using Form II at ambient and elevated temperature. […] Slurries were set up in a variety of solvent systems to determine the stable form and the potential of Compound 1 to form stable solvates. The slurries were prepared using Form II and each was seeded with Form I. Each of the slurries was stirred for about two weeks and most of the slurries were run at room temperature although a few were run at sub-ambient and elevated temperatures (˜45° C.). […] A few samples did show a minor amount of Form I in Form II likely due to poor conversion kinetics due to limited solubility. […] Interconversion studies starting with a mixture of Form I and Form II were also run in methanol at room temperature and ˜45° C.

[3] = Weight increase upon increasing relative humidity; details: upon increasing relative humidity from 5.0% to 95.0%
From the text: In another embodiment of the invention, provided herein is Form II characterized as a solid form of Compound 1, such that the solid form undergoes a weight increase of less than 1.5% upon increasing relative humidity from 5.0% to 95.0%.

[4] = Estimated solubility by aliquot addition of solvent, visual inspection; details: for solubility: thermodynamic from solid
Description: The present disclosure provides morphic Form II with low solubility in methanol. The solubility may be estimated based on the total volume of solvent needed to provide complete dissolution. The actual solubility may be greater than the value calculated due to the incremental addition of solvent and kinetics of dissolution of the material. […] Solubility Determination: Aliquots of test solvents or solvent mixtures were added to weighed samples of Compound 1. Samples were sonicated as needed between additions to facilitate dissolution. Complete dissolution of the test material in each solvent was determined by visual inspection. The solubility was estimated based on the total volume of solvent needed to provide complete dissolution. The actual solubility may be greater than the value calculated due to the incremental addition of solvent and kinetics of dissolution of the material. […] See Table 2 and discussion under “Solubility” section in the “Detailed Description” of the present disclosure.

[5] = Slurry conversion of Form II to Form H in methanol:water, seeded with Form H; details: for Results (form recovered from slurry): stirred 7-9 days
Description: The present disclosure provides that an anhydrous form (e.g. Form II) is produced without forming a hydrate form (e.g., Form H) during the crystallization process, by determining the critical water concentration below which the anhydrous form is the stable form. The critical water concentration is determined by varying the methanol-water concentrations in the slurries.
In another embodiment, at concentrations of 97:3 methanol:water and greater, Form H was recovered from the slurries. These embodiments provide that the critical water concentration for forming Form II is between 1 and 3% water. In some embodiments, water in the initial methanol solvent is not accounted for, which results in slightly higher final water concentration than 1 and 3%. In additional embodiments, experiments, by varying the methanol-water concentrations in the slurries, is carried out at room temperature or at about 45° C. In one embodiment, the critical water concentration is less than 5% at room temperature and less than 10% at about 45° C. Mixtures of Form II and Form H are observed to convert to either Form II or Form H in methanol depending on the exact water content. The present disclosure provides that during crystallization of Form II, critical water activity remains very low up to about 45° C. and that water content in the final methanol recrystallization is a critical process parameter to control to avoid operating in conditions which favors formation of Form H.

[6] = Relative humidity (RH) stressing of Form II
From the text: In some embodiments, a composition comprising morphic Form II of the present disclosure converts to a hydrate Form (e.g., Form H) if stored under relative humidity (RH) of 40% or more. In some embodiments, a composition comprising morphic Form II of the present disclosure partially converts to morphic Form H if stored under relative humidity of equal to or more than 40% for several days. […] A complete conversion of a composition comprising the morphic Form II of the present disclosure occurs at about equal to or more than 80% RH, about equal to or more than 81% RH, about equal to or more than 82% RH, about equal to or more than 83% RH, about equal to or more than 84% RH, about equal to or more than 85% RH, about equal to or more than 86% RH, about equal to or more than 87% RH, about equal to or more than 88% RH, about equal to or more than 89% RH over between 5-20 days (e.g., 5 days, 6 days, 7 days, 8 days, 9 days, 10 days, 11 days, 12 days, 13 days, 14 days, 15 days, 16 days, 17 days, 18 days, 19 days, 20 days).
The present disclosure provides that exposure of Form II to higher humidity is sufficient for conversion to the hydrate form.

[7] = Methanol solubility and metastable zone (MSZ), Crystal16; details: for Cloud Point 2: 0.03 C./min cooling rate; for Cloud Point 1: 0.5° C./min cooling rate
Description: MSZW is a nucleation kinetic-limited parameter that is highly dependent on process condition. Many factors may influence the value of MSZW, e.g., rate of cooling, agitation, the presence of foreign particles and impurities. MSZW decreases as stirrer speed increases; MSZW widens at N>400 rpm; and MSZW widens as cooling rate rises. In one embodiment, large differences in the metastable zone are observed for both Form II and Form I between the rapid cooling rate of about 0.5° C./min and a very slow cooling rate of about 0.03° C./min. In another embodiment, narrow metastable cooling rates are observed at higher concentrations (e.g., about 100 mg/mL).

[8] = 10% of total volume of particles no larger than the indicated size
[9] = 50% of total volume of particles no larger than the indicated size
[10] = 90% of total volume of particles no larger than the indicated size
[11] = crystallized from methanol ~10 vols, seed ~0.5% Form II at ~58° C.
[12] = crystallized from methanol ~10 vols, seed ~3% Form II

## CCCCCCCCCCCCCCCCOCCCOP(=O)(O)CO[C@H](CO)Cn1ccc(N)nc1=O [Sample 1]
[1]; [8]
  d10: 19.297 μm
[1]; [9]
  d50: 81.603 μm
[1]; [10]
  d90: 168.698 μm

## CCCCCCCCCCCCCCCCOCCCOP(=O)(O)CO[C@H](CO)Cn1ccc(N)nc1=O [Sample 4]
[1]; [8]
  d10: 17.410 μm
[1]; [9]
  d50: 85.440 μm
[1]; [10]
  d90: 199.029 μm

## CCCCCCCCCCCCCCCCOCCCOP(=O)(O)CO[C@H](CO)Cn1ccc(N)nc1=O [Sample 3]
[1]; [8]
  d10: 19.896 μm
[1]; [9]
  d50: 101.748 μm and 101.745 μm

## CCCCCCCCCCCCCCCCOCCCOP(=O)(O)CO[C@H](CO)Cn1ccc(N)nc1=O [Form II, phosphonic acid, [[(S)-2-(4-amino-2-oxo-1(2H)-pyrimidinyl)-1-(hydroxymethyl)ethoxy]methyl]mono[3-(hexadecyloxy)propyl] ester]
[1]; FIG. 5
  particle size distribution, volume weighted mean: 25.663
[1]; [11]
  d10: d10 = 17.8 μm
  d50: 69.6 μm;
  d90: d90 = 160.9 μm
[1]; [12]
  d10: d10 = 9.8 μm
  d50: 34.4 μm;
  d90: d90 = 101.7 μm
[2]; anhydrous solvent systems, mostly room temperature
  Form recovered from slurries: Form II was recovered
[2]; aqueous solvent systems
  Form recovered from slurries: converted to the hydrated form, Form H
[2]; starting with a mixture of Form I and Form II, methanol, room temperature and ~45° C.
  Solids recovered from interconversion studies: consistent with Form II
[3]
  weight increase: less than 1.5%
[4]; ambient and elevated temperature, each of the solvents tested
  Solubility in various solvent systems: poor solubility
[4]; aqueous with cosolvent or surfactant or cyclodextrin, Methanol:Water 1:1, RT, estimated
  solubility: < 3 mg/mL
[4]; aqueous with cosolvent or surfactant or cyclodextrin, Methanol:Water 1:1, ~63 °C, estimated
  solubility: < 14 mg/mL
[4]; organic solvent or mixture, Trifluoroethanol, estimate
  solubility: > 5 mg/mL
[5]; Methanol:water (80:20), ~44-45 °C
  Results (form recovered from slurry): Form H
[5]; Methanol:water (85:15), ~44-45 °C
  Results (form recovered from slurry): Form H
[5]; Methanol:water (90:10), RT
  Results (form recovered from slurry): Form H
[5]; Methanol:water (90:10), ~44-45 °C
  Results (form recovered from slurry): Form H
[5]; Methanol:water (93:7), RT
  Results (form recovered from slurry): Form H
[5]; Methanol:water (93:7), ~2-8 °C
  Results (form recovered from slurry): Form H
[5]; Methanol:water (95:5), RT
  Results (form recovered from slurry): Form H
[5]; Methanol:water (95:5), ~2-8 °C
  Results (form recovered from slurry): Form H
[5]; Methanol:water (95:5), ~44-45 °C
  Results (form recovered from slurry): Form II +
[5]; Methanol:water (97:3), RT
  Results (form recovered from slurry): Form II +
[5]; Methanol:water (97:3), ~2-8 °C
  Results (form recovered from slurry): Form H
[5]; Methanol:water (99:1), ~2-8 °C
  Results (form recovered from slurry): Form II
[5]; about 45° C. slurries in methanol:water
  critical water concentration: less than 10%
[5]; room temperature slurries in methanol:water
  critical water concentration: less than 5%
[6]; about 43% RH for about 12 days
  Conversion to hydrate form on RH exposure: partially converts to a hydrate form
[6]; about 43 to about 85% RH for about 12 days
  Conversion from Form II to Form H on RH exposure: minor conversion from Form II to Form H
[6]; about 85% RH
  Conversion from Form II to Form H on RH exposure: complete conversion of Form II to Form H
[7]
  Solubility in methanol compared to Form I: Lower solubility
[7]; 20.3 mg/mL
  Clear Point: 53.6 °C
  Cloud Point 2: 38.2 °C
  Cloud Point 1: 37.6 °C
[7]; 29.4 mg/mL
  Clear Point: 56.2 °C
  Cloud Point 2: 44.6 °C
  Cloud Point 1: 45.1 °C
[7]; 38.9 mg/mL
  Clear Point: 58.1 °C
  Cloud Point 2: 51.1 °C
  Cloud Point 1: 45.1 °C
[7]; 50.5 mg/mL
  Clear Point: 60.2 °C
  Cloud Point 2: 56.6 °C
  Cloud Point 1: 51.0 °C
[7]; 64.3 mg/mL
  Clear Point: 60.5 °C
  Cloud Point 2: 58.8 °C
  Cloud Point 1: 48.5 °C
[7]; 80.4 mg/mL
  Clear Point: 61.2 °C
  Cloud Point 2: 57.9 °C
  Cloud Point 1: 49.7 °C
[7]; 95.6 mg/mL
  Clear Point: 61.9 °C
  Cloud Point 2: 59.9 °C
  Cloud Point 1: 58.1 °C
[7]; 166.6 mg/mL
  Clear Point: 63.1 °C
  Cloud Point 2: 61.1 °C
  Cloud Point 1: 58.1 °C
